Data from PMC12006963, “Application of Deuterium in an M1 Positive Allosteric Modulator Back-Up Program: The Discovery of VU6045422” (ACS Chemical Neuroscience, 2025).

Assays:
CYP 3A4 [1] = biological target: T1, CYP 3A4 (Homo sapiens, UniProt P08684); design: method as in PMID 39660766; conditions: in words; cited from earlier work
hM2-5 = test: Muscarinic selectivity, human M2-5 calcium mobilization; assay type: cell-based
Experimental: Procedures for Biological Experiments
Calcium mobilization assays:
All functional cell-based assays were performed in stable Chinese Hamster Ovary (CHO) cell lines constitutively expressing human M5 or human M1 receptors. For full muscarinic selectivity, CHO cells expressing human M3, human M2 plus Gqi5 or human M4 plus Gqi5 were used. Cells were plated at 15,000 cells per 20 µL per well in black 384-well, TC-treated, clear-bottomed plates (Greiner) in Ham’s F12 medium supplemented with 10% FBS and 20 mM HEPES. Cells were incubated overnight at 37 °C under 5% CO2. […] The compound plate, cell plate, and plates containing EC20 and EC80 acetylcholine concentrations were placed in a Hamamatsu FDSS 6000 or 7000 kinetic imaging plate reader equipped to measure Ex480/Em540 fluorescence. […] After 2 seconds of collecting baseline fluorescence, 20 µL of the compound solutions were added to the cell plate. […] The fluorescence signal was collected for a total of 300 seconds. […] Data were imported and analyzed in Dotmatics Informatics software. by normalizing all data in the individual kinetic traces to the initial fluorescence read. The magnitude of each agonist addition was then determined and normalized to the average maximum response. […] The IC50 determined using the EC80 of acetylcholine is the value reported. […]

Adrenergic α2A = Adrenergic α2A (Homo sapiens, UniProt P08913); test: Eurofins radioligand binding
Sodium Channel, Site 2 = test: Eurofins radioligand binding; design: species or system Rat
[2] = Rat oral dose escalation PK study; assay type: in vivo; conditions: for AUC(0-t) / Cmax: Sprague-Dawley, plasma, rat, oral
Experimental: page 9: Brain plasma concentration ratio (Kp) was calculated by dividing brain concentration by plasma concentration for each animal. Unbound brain to unbound plasma concentration ratio (Kp,uu) is calculated using the following formula: Kp,uu = (Brain ng/g x brain fu)/(plasma ng/ml x plasma fu). Pharmacokinetic profiles in rats following oral single escalating doses Single escalating oral dosing in Sprague-Dawley rats was performed at Frontage Laboratories according to their non-GLP Standard Operating Procedure and IACUC protocols. […] At different times, arterial blood was collected from a femoral artery catheter, and compound concentration was determined in plasma by LC-MS/MS following their non-GLP protocol. PK parameters were determined using Phoenix WinNonlin software (version 6.3). In-vitro determination of blood-brain barrier penetration potential Blood-brain barrier penetration was determined using MDR1-MDCK cell monolayers by Absorption Systems, following their protocol. In short, compounds were incubated at […] final concentration on one side of the cell monolayer for 2 hours. Compounds concentration on either side of the monolayer was determined by LC-MS/MS and apparent permeability and efflux ratio were determined as described in Wang, Q. et al.1 Behavioral Manifestations of Seizure Activity To evaluate induction of behavioral manifestation of seizure activity, C57Bl/6 mice received administration of vehicle or 100 mg/kg M1 PAM 5. Compound was formulated in 30% Captisol (pH 7.0) at a concentration of 10 mg/mL and injected i.p. at 10 ml/kg (n = 4). Animals were monitored continuously and scored for behavioral manifestations of seizure activity at 5, 15, 30 min, and 1 h. Behavioral manifestations of seizures were scored using a modified Racine scoring system. Briefly, a score of 0 represents no behavior alterations; score 1, immobility, mouth and facial movements, or facial clonus; score 2, head nodding, tail extension; score 3, forelimb clonus, repetitive movements; score 4, rearing and tonic clonic seizure; and score 5, continuous rearing and falling, severe generalized tonic clonic seizure. Novel Object Recognition Task S9

Thyroid Hormone = test: Eurofins radioligand binding; design: species or system Rat
Adrenergic α1A = Adrenergic α1A (Homo sapiens, UniProt P35348); test: Eurofins radioligand binding
Adrenergic α1A, sequence (P35348 whole entry): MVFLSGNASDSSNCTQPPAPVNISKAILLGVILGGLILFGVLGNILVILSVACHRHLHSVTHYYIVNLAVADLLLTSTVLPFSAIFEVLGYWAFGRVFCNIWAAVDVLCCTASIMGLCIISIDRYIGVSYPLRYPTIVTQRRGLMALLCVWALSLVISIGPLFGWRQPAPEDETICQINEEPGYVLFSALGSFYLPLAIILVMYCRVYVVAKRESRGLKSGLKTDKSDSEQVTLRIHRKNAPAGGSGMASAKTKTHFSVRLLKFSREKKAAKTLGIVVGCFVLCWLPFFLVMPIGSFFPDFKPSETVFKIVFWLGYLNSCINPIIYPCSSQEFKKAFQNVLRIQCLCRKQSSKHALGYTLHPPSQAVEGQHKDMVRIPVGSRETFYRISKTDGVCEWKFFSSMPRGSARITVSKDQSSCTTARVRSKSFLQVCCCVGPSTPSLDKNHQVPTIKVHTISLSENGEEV

Adrenergic α1B = Adrenergic α1B (Homo sapiens, UniProt P35368); test: Eurofins radioligand binding
Adrenergic α1B, sequence (P35368 whole entry): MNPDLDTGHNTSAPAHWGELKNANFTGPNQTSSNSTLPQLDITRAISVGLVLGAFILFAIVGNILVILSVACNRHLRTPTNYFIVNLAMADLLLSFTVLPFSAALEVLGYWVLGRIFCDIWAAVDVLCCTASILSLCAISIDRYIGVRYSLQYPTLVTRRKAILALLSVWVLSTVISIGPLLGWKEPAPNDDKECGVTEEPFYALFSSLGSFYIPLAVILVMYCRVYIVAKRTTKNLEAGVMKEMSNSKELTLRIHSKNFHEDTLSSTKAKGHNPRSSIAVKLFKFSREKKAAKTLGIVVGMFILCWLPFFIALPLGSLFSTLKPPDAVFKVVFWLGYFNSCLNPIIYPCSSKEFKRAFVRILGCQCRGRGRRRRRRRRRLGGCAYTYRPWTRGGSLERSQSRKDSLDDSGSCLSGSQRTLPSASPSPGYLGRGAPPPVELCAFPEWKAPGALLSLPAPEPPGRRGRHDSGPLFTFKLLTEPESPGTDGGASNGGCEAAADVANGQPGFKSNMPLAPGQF

Dopamine D2S = Dopamine D2S (Homo sapiens, UniProt P14416); test: Eurofins radioligand binding
Cannabinoid CB1 = Cannabinoid CB1 (Homo sapiens, UniProt P21554); test: Eurofins radioligand binding
Cannabinoid CB1, sequence (P21554 whole entry): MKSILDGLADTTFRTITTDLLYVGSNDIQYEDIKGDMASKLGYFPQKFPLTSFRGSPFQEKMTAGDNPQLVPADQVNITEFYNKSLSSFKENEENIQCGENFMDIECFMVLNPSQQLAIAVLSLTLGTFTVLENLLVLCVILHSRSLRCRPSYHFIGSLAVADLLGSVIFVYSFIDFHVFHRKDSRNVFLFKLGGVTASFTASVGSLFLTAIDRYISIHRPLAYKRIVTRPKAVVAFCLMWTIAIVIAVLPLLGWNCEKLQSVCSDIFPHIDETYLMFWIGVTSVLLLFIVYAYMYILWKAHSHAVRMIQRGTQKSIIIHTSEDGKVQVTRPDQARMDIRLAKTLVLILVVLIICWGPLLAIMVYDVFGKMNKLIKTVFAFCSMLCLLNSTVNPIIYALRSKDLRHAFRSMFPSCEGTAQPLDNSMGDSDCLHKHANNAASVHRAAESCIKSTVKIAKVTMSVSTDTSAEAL

Calcium Channel N-Type = Calcium Channel N-Type (Rattus norvegicus, UniProt Q02294); test: Eurofins radioligand binding
Calcium Channel N-Type, sequence (Q02294 whole entry, canonical isoform): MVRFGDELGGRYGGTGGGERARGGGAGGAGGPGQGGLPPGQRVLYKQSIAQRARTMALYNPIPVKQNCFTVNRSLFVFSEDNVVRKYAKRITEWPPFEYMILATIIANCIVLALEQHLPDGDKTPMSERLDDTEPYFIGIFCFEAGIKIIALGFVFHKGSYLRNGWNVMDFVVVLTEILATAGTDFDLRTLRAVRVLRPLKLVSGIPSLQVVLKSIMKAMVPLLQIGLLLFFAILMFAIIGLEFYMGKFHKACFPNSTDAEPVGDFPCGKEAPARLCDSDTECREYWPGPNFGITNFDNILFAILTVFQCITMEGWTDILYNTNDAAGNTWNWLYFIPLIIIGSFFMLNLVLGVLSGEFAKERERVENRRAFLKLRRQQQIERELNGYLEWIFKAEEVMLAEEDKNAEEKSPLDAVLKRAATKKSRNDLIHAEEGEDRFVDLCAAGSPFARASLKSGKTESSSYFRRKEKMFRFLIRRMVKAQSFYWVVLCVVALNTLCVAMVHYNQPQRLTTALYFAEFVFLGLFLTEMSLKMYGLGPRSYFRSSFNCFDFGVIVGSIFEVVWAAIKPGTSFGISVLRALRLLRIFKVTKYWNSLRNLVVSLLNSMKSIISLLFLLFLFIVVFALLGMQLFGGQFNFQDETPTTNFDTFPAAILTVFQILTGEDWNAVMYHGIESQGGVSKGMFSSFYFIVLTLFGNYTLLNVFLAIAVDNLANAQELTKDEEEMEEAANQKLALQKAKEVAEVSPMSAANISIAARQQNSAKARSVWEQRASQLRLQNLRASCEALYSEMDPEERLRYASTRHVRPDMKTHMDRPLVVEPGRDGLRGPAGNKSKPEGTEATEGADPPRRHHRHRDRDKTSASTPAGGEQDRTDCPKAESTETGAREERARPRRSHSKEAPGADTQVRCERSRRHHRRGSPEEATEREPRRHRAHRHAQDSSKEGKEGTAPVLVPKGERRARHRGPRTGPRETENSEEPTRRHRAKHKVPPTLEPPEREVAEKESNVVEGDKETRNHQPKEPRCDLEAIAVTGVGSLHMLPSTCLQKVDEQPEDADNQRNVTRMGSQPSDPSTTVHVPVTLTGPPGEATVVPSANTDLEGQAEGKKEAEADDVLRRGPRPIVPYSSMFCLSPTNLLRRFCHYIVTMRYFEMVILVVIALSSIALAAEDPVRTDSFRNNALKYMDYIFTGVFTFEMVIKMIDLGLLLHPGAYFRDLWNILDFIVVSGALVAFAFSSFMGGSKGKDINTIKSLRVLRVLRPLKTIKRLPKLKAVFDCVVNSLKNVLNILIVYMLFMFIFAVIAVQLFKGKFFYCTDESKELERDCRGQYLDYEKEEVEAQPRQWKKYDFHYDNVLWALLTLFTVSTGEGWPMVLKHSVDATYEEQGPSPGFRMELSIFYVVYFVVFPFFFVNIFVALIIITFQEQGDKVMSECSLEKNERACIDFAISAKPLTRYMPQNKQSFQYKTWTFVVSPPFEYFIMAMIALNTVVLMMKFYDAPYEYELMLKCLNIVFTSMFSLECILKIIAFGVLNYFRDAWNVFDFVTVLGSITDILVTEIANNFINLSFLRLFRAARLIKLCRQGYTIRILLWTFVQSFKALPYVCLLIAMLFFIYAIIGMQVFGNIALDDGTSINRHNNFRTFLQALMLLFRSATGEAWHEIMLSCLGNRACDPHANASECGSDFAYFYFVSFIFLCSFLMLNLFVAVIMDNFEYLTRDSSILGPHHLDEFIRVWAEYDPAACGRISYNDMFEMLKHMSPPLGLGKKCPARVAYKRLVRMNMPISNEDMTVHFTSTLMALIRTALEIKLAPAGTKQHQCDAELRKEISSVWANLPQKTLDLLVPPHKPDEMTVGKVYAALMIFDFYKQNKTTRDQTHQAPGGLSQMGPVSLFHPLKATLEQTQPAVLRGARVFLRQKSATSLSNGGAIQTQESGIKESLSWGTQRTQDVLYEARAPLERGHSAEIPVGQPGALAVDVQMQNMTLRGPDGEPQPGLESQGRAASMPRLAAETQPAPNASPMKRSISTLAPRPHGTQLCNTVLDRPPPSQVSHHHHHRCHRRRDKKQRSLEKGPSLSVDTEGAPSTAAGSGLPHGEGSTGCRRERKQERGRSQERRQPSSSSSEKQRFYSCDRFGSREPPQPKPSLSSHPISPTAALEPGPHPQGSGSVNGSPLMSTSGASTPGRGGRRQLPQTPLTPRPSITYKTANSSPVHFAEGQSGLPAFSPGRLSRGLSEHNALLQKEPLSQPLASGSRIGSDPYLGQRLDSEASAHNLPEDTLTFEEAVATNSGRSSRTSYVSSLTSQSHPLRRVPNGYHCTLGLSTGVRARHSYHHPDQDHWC

CYP 3A4 [3] = biological target: T1, CYP 3A4; test: CYP isoform contribution to metabolism: 3A4; assay type: in vitro ADME
Adrenergic β1 = Adrenergic β1 (Homo sapiens, UniProt P08588); test: Eurofins radioligand binding
Adrenergic β1, sequence (P08588 whole entry): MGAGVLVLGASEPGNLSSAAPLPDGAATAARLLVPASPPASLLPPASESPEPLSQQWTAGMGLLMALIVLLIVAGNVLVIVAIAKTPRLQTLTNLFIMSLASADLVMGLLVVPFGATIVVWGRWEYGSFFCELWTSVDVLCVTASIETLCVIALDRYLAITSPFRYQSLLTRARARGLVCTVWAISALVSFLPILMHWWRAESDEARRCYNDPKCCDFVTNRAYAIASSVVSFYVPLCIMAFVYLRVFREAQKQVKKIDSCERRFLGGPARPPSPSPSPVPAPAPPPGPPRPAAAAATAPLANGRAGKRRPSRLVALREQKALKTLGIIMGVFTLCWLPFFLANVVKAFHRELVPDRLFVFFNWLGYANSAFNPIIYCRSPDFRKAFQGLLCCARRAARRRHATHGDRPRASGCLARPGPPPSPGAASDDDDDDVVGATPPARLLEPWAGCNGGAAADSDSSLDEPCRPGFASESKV

Adenosine A1 = Adenosine A1 (Homo sapiens, UniProt P30542); test: Eurofins radioligand binding
[4] = tested on: Purinergic P2Y, Non-Selective; test: Eurofins radioligand binding; design: species or system Rat
Endothelin ETA = Endothelin ETA (Homo sapiens, UniProt P25101); test: Eurofins radioligand binding
Glutamate, Kainate = test: Eurofins radioligand binding; design: species or system Rat

T1 sequence (P08684 whole entry): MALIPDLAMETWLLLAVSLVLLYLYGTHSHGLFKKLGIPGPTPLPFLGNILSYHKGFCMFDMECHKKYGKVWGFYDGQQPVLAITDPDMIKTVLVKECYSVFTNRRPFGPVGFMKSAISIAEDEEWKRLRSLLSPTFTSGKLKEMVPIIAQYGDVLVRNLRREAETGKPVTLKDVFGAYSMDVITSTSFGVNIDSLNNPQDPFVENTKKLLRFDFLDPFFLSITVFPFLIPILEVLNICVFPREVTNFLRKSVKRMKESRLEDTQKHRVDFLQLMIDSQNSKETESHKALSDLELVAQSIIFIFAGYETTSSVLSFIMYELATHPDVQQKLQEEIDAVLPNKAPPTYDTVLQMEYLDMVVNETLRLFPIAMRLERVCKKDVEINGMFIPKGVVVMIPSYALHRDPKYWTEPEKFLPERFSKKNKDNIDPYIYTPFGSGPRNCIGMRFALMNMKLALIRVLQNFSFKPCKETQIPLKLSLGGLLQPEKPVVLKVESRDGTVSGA

In the case of Cn1cc2c(-c3cc(F)c(CN4Cc5ncccc5C4=O)c(F)c3)cccc2n1 [compound 1], the “CYP isoform responsible for metabolism” value (CYP 3A4 [1]) is listed as “solely metabolized by CYP 3A4”.
In the case of [2H]C1([2H])c2ncccc2C(=O)N1Cc1c(F)cc(-c2cccc3nn(C)cc23)cc1F [compound 3], the EC50 (hM2-5) is reported as over 30 µM.
In the case of [2H]C1([2H])c2ncccc2C(=O)N1Cc1c(F)cc(-c2cccc3nn(C([2H])([2H])[2H])cc23)cc1F [compound 5], the inhibition at 10 µM (Adrenergic α2A) is reported as 58%, the “% Inhibition at 10 µM” value (Sodium Channel, Site 2) is reported as 14% and the AUC(0-t) ([2]; 3 mg/kg) is reported as 8.39 µg·h/mL. For the same compound, the Cmax ([2]; 3 mg/kg) was 1.25 µg/mL, the AUC(0-t) ([2]; 10 mg/kg) was 23.9 µg·h/mL and the Cmax ([2]; 10 mg/kg) was 3.38 µg/mL. For the same compound, the AUC(0-t) ([2]; 30 mg/kg) was 55.6 µg·h/mL, the Cmax ([2]; 30 mg/kg) was 6.02 µg/mL and the AUC(0-t) ([2]; 100 mg/kg) was 87.8 µg·h/mL. For the same compound, the Cmax ([2]; 100 mg/kg) was 7.85 µg/mL, the “cholinergic signs or adverse events” value ([2]; rat oral dose escalation 3-100 mg/kg) was “no cholinergic signs or adverse events were noted” and the “% Inhibition at 10 µM” value (Thyroid Hormone) was 0%. For the same compound, the inhibition at 10 µM (Adrenergic α1A) was 8%, the inhibition at 10 µM (Adrenergic α1B) was 10% and the inhibition at 10 µM (Dopamine D2S) was 2%. The inhibition at 10 µM (Cannabinoid CB1) was -3%, the inhibition at 10 µM (Calcium Channel N-Type) was -2% and the “contribution of CYP 3A4 to metabolism” value (CYP 3A4 [3]) was 92.6%. It also gave an inhibition at 10 µM (Adrenergic β1) of 2%, an EC50 (hM2-5) of over 30 µM and an inhibition at 10 µM (Adenosine A1) of 30%. For the same compound, the “% Inhibition at 10 µM” value [4] was 9%, the inhibition at 10 µM (Endothelin ETA) was -4% and the “% Inhibition at 10 µM” value (Glutamate, Kainate) was 13%.
